Source: patent US6872712B1, “Cyclic glycerophosphates and analogs thereof” (Yeda Research and Development Co. Ltd., priority 1999, dated 2005)

Legend:
cell lysate phosphatases = assay: Inhibition of phosphatase activity of cell lysate (PNPP substrate); format: biochemical; conditions: 50 μM, 50 mM PNPP, 90 minutes at 37° C., pH 7.4
Description: Inhibition of phosphatase activity of cell lysate by cyclic phosphates was assayed in 1.0 ml of 50 mM Tris-HCl buffer, pH 7.4, containing 50 mM p-nitrophenyl phosphate, PNPP, as a substrate. Reaction was initiated by the addition of crude cell lysate (100 μg/ml final protein concentration) and terminated after 90 minutes at 37° C. by an addition of 50 μl of 1M NaOH. […] Assays were conducted under the same conditions as above in the presence of 50 μM cyclic phosphate. The enzyme activity in the absence of inhibitor was taken as 100% activity.

CHO cells = assay: Uptake of 32P labeled 1,3-cPP by CHO cells; format: cell-based, Chinese hamster; conditions: intact CHO cells, increasing amounts of unlabeled compound
Description: After 2 washings with PBS the cells were disintegrated in 1 M NaOH and radioactivity was scored with a β counter. The insert presents the magnified uptake profile for short incubations (up to 2 minutes) where the intercept (0 time incubation) corresponded to approximately 3×10^6 molecules per cell, while at equilibrium (above 2 hours incubation) incorporation corresponded to approximately 2×10^8 molecules per cell.

perforated CHO cells = assay: Intracellular binding in perforated CHO cells (displacement of 1,3-cP32P); parameters: species or system Chinese hamster; conditions: 20 μM 1,3-cP32P, 5 minutes at 4° C., increasing amounts of competitor (FIG. 9)
Description: Radioactivity was scored after 2 washings with PBS at 4° C. as above. […] In this set of experiments the number of displaceable (i.e. specifically bound) ligands was estimated to be in the range of 10^7-10^8 per cell.

insulin receptor = assay: Tyrosine phosphorylation of the insulin receptor in CHO-T cells; format: cell-based; conditions: 20 mins, 0.1 μM 1,3 cPP in combination with 0.1 nM insulin (FIG. 10)
Description: Group 4: 0.1 μM 1,3, cPP only.
Tyrosine phosphorylation was determined using anti-phosphotyrosine antibody (as described above).

[1] = Stability of cyclic phosphates in cell lysates (TLC); conditions: 10 mg/ml in PBS mixed with CHO or NIH-3T3 cell lysate (0.1 mg/ml protein), 37°, up to 24 hours
Description: This distinct difference allowed the qualitative detection of hydrolysis of the cyclic phosphate.

[2] = Stability of cyclic phosphates in PBS / aqueous solution (TLC); format: physicochemical; conditions: 10 mg/ml in PBS, 37°, up to 24 hours
Description: These possibilities were tested with the 4 cyclic phosphates (1,2 cGP, 1,3 cGP, 1,2 cPP and 1,3 cPPP (see Appendix A) in either aqueous solution or in cell lysates of CHO or NIH-3T3 cells (see Materials and Methods). 10 mg/ml cyclic phosphate in 1 ml of either PBS or PBS mixed with cell lysate (0.1 mg/ml protein) and incubated at 37° for up to 24 hours. Samples were tested at different times by thin layer chromatography on Silica gel 60 with n-propanol, concentrated ammonia, H2O (6:3:1 v/v/v). The Rr values for all 4 cyclic phosphates was in the range of 0.45-0.55 while α-GP and β-GP had Rf=0.14-0.16. This distinct difference allowed the qualitative detection of hydrolysis of the cyclic phosphate.

[3] = tested on: T47D human breast cancer cells; assay: Proliferation of T47D human breast cancer cells (3H-thymidine); format: cell-based; conditions: 50 μM 1,3-cPP salt, days 1, 2 and 3 (P 0.0370, 0.0192, 0.0238) (FIG. 12)
Description: In this experiment, 8×10^4 T47D (clone 11) human breast cancer cells were plated in sets of 6 in 96 well microtiter plates and titrated concentrations (1-50 μM final concentrations) of 1,3-cPP salt in complete medium were added to the cultures at the beginning of the experiment only in a total volume of 200 μl per well. Plates were incubated at 37° C. over the course of 5 days, where 1 plate was pulsed with ^3H-thymidine (Sigma) overnight each day and subsequently frozen. All the plates were harvested together (Packard Micromate 196 Harvester, Merriden, Conn.) and scored on a 96 well plate reader (Packard Matrix 96, Merriden, Conn.).

[4] = tested on: tyrosine phosphorylated proteins in CHO cells; assay: Tyrosine phosphorylation in CHO cells (Western blot with anti-phosphotyrosine antibodies); format: cell-based, Chinese hamster; conditions: CHO cells, 1, 3, 5 or 10 mins at 37° C., 1 μM or 2 μM, monoclonal antibodies (FIG. 2)
Description: Chinese hamster ovary (CHO) cells (Puck, 1985; Gottesman, 1987) and NIH-3T3 cells (NIH), were used in the following experiments. CHO cells were grown at 37° C. in a humidified 5% CO2 atmosphere in 60×15 mm Petri dishes (Falcon) containing F12 medium supplemented with 10% fetal calf serum (FCS) and 2 mM glutamine. When reaching near confluence, the cells were placed under overnight starvation by replacing the medium to F12+2 mM glutamine with 0.1% FCS. The stimulation experiments were performed with cells which were under starvation for 12-18 hours.
(§1) The cyclic phosphates 1,3 cGP, 1,3 cPP, 1,2 cGP, 1,2 cPP, P-1,3 cGP and P-1,3 cPP and the controls αGP and βGP were dissolved in HBSS, or methanol to form stocks of 1 mM or 10 mM. They were diluted into the cell culture medium to a final concentration of up to 20 μM. At the assigned stimulation time (0.5-20 min.) the medium was aspirated under vacuum and the cells were washed 3 times with cold (4° C.) phosphate buffered saline (PBS). […] The protein concentration in each sample, as evaluated by the Bradford assay, was in the range of 1-1.5 mg/ml. […] Bound antibodies were detected by horseradish peroxidase-conjugated anti-rabbit antibodies (Transduction Laboratories, Lexington Ky.) after 2 hours incubation at room temperature, using the conventional ECL detection method. […]

[5] = tested on: tyrosine phosphorylated proteins in NIH 3T3 cells; assay: Tyrosine phosphorylation in NIH 3T3 cells (Western blot with anti-phosphotyrosine antibodies); format: cell-based; conditions: 1 min or 5 mins at 37° C., 0.5, 1, 2 or 4 μM, monoclonal antibodies (FIG. 3)
Description: NIH-3T3 cells were grown under similar conditions in 1640 Eagle medium at 10% bovine calf serum plus 2 mM glutamine.
as §1, with “(PBS). The cells were then freeze-thawed 3 times with liquid nitrogen in 0.5 ml of a lysis buffer of PBS containing 1 mM phenylmethylsulfonyl fluoride, a cocktail of protease inhibitors (aprotinin, leuproptin, pepstatin A, phenanthroline, benzamidine HCl each at a concentration of 10 μg/ml) and a cocktail of phosphatase inhibitors (80 mM β-glycerophosphate, 2 mM EGTA and 50 μM Na3VO4), and then scraped off. The lysate was then vortexed and centrifuged for 2 minutes at 12.000 g.” for “(PBS).”

K562 leukemia cells = assay: Differentiation of K562 leukemia cells (hemoglobin, benzidine assay); format: cell-based; conditions: 4 days, 10 μM 1,3 cPP in combination with 1.5 mM sodium butyrate (FIG. 13)
Description: K562 leukemia cells are able to differentiate to the erythroid lineage. Such differentiation is characterized by the cells' ability to synthesize hemoglobin. Sodium butyrate is a known differentiation agent of such leukemia cells.
In this example, the ability of 1,3 cPP, α-GP and sodium butyrate alone and n combination to cause differentiation of K562 cells was evaluated using the known benzidine assay.
K562 cells were incubated for a period of 4 days with the following: • (a) growth medium (control); • (b) 10 μM of 1,3 cPP; • (c) […] of α-GP; • (d) 1.5 mM of sodium butyrate; • (e) a combination of sodium butyrate and 1,3 cPP; and • (f) sodium butyrate and α-GP.

O=P1(O)OCCCO1 [1,3 cPP, 1,3 cyclic propanediol phosphate]
inhibition of cell lysate phosphatase activity (cell lysate phosphatases): 15-20%
effect of unlabeled competitor on the uptake profile of 1,3-cP32P (CHO cells): remained essentially unaltered
displacement of 1,3-cP32P in perforated CHO cells (perforated CHO cells): specific binding
phosphorylation of insulin receptor (117 kD and 200 kD bands) relative to insulin only (insulin receptor): almost doubled
hydrolysis to the linear form by cell lysate [1]: No hydrolysis
hydrolysis to the linear form in PBS [2]: No hydrolysis
proliferation versus cells in growth medium only [3]: significant inhibition
level of tyrosine phosphorylated proteins [4]: phosphorylation was most markedly seen in the band(s) having a molecular weight of about 35 kD and about 45 kD
level of tyrosine phosphorylated proteins [5]: augmented tyrosine phosphorylation
synthesis of hemoglobin relative to sodium butyrate alone (K562 leukemia cells): 3 fold
